This passage reports IC50 results from patent publication US20040224958A1, “Pyridopyrimidinone derivatives for treatment of neurodegenerative disease” (priority 2000, published 2004).

Sequence of cdk4/D (P11802 whole entry): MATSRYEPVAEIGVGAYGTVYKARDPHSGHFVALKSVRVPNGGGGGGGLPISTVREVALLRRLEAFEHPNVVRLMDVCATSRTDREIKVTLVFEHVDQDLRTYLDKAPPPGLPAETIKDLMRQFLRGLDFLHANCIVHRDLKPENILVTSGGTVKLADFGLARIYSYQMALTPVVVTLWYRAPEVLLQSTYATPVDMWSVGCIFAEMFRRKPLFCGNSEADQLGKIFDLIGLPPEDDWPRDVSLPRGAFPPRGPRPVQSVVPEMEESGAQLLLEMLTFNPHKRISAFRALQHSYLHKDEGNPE
Sequence of cdk4/D (P24385 whole entry, further chain): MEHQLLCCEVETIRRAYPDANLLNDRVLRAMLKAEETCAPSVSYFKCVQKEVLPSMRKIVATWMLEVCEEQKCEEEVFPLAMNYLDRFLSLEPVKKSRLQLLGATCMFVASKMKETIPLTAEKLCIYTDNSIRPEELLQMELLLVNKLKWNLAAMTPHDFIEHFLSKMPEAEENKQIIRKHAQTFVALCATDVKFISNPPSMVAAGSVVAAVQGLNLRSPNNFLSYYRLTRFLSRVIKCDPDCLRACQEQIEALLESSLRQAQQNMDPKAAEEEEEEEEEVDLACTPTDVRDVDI
Sequence of cdc2/cyclinB (P06493 whole entry): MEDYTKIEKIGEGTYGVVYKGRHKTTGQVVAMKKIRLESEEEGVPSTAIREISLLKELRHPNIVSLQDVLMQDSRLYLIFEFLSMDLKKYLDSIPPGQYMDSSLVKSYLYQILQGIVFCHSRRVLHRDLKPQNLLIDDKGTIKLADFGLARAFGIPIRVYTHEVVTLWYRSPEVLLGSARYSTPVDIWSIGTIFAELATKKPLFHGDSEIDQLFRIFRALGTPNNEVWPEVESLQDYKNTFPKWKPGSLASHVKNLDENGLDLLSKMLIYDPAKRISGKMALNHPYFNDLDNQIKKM
Sequence of cdc2/cyclinB (P14635 whole entry, further chain): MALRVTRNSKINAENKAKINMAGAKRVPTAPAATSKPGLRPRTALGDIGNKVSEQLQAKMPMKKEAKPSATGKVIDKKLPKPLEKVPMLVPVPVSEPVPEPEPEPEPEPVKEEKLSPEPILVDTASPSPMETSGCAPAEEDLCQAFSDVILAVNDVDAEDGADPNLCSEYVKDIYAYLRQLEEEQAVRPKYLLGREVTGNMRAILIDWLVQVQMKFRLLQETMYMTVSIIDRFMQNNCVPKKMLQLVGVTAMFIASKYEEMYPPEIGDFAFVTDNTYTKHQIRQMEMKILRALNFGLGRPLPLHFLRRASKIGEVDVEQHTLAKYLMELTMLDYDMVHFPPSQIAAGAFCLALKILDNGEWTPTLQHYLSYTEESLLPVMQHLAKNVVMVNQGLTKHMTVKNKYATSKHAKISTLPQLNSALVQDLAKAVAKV

One assay concerns the target cdc2/cyclinB (Homo sapiens, UniProt P06493). Description: Cyclin-Dependent Kinase Assay cdc2/cyclinB.
Conditions: not given
As to `CCCCn1c(=O)ccc2cnc(Nc3ccc(F)c(F)c3)nc21` [Example 397, 8-Butyl-2-(3,4-difluoro-phenylamino)-8H-pyrido[2,3-d]pyrimidin-7-one], the IC50 was found to be 0.29 µM.
On to `CCCCn1c(=O)ccc2cnc(Nc3ccc(I)c(Cl)c3)nc21` [Example 398, 8-Butyl-2-(3-chloro-4-iodo-phenylamino)-8H-pyrido[2,3-d]pyrimidin-7-one], for which the IC50 was found to be 0.42 µM.
The compound `CCCCn1c(=O)ccc2cnc(Nc3cc(C)cc(C)c3)nc21` [Example 399, 8-Butyl-2-(3,5-dimethyl-phenylamino)-8H-pyrido[2,3-d]pyrimidin-7-one] returned an IC50 of 0.063 µM.
Compound `CCCCn1c(=O)ccc2cnc(Nc3ccc(C)c(Cl)c3)nc21` [Example 400, 8-Butyl-2-(3-chloro-4-methyl-phenylamino)-8H-pyrido[2,3-d]pyrimidin-7-one] gave an IC50 of 0.12 µM.
Still for that read-out and setting: as for `CCCCn1c(=O)ccc2cnc(Nc3ccc(Cl)c(C(F)(F)F)c3)nc21` [Example 401, 8-Butyl-2-(4-chloro-3-trifluoromethyl-phenylamino)-8H-pyrido[2,3-d]pyrimidin-7-one], the figure is 1.9 µM.
In turn, `CCCCn1c(=O)ccc2cnc(Nc3cccc(S(N)(=O)=O)c3)nc21` [Example 402, 3-(8-Butyl-7-oxo-7,8-dihydro-pyrido[2,3-d]pyrimidin-2-ylamino)-benzenesulfonamide] had an IC50 of 0.058 µM.
Compound `CCCCn1c(=O)ccc2cnc(Nc3ccc4c(c3)CCCC4=O)nc21` [Example 403, 8-Butyl-2-(5-oxo-5,6,7,8-tetrahydro-naphthalen-2-ylamino)-8H-pyrido[2,3-d]pyrimidin-7-one] came in with an IC50 of 0.073 µM.
Still for that read-out and setting: under `CCCCn1c(=O)ccc2cnc(Nc3cc(F)cc(F)c3)nc21` [Example 404, 8-Butyl-2-(3,5-difluoro-phenylamino)-8H-pyrido[2,3-d]pyrimidin-7-one] stands 0.61 µM; under `CC(C)n1c(=O)ccc2cnc(Nc3cccc([N+](=O)[O-])c3)nc21` [Example 406, 8-Isopropyl-2-(3-nitro-phenylamino)-8H-pyrido[2,3-d]pyrimidin-7-one], 0.113 µM.
Still for that read-out and setting: as for `CC(C)n1c(=O)ccc2cnc(Nc3ccc(F)c(C(F)(F)F)c3)nc21` [Example 407, 2-(4-Fluoro-3-trifluoromethyl-phenylamino)-8-isopropyl-8H-pyrido[2,3-d]pyrimidin-7-one], the figure is 0.32 µM.

For a further assay, the target named is Cdk5/p25 (Homo sapiens, UniProt Q00535). Description: Cyclin-Dependent Kinase 5 High Throughput Screening (cdk5-HTS) Assay. The assay is classed as biochemical. The conditions noted are these: high throughput screen. The method, boiled down: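 Cdk5/p25 (1.0 μg/mL) phosphorylates GST-RbCOOH (20 μg/mL) in 50 mM Tris pH 7.4 with 10 mM MgCl2 and 20 μM ATP spiked with [γ33P]ATP, 30 min at room temperature. After EDTA stop, substrate captured on glutathione-coated plates; 33P incorporation counted by scintillation; IC50 determined.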
`CCCCn1c(=O)ccc2cnc(Nc3ccc(F)c(F)c3)nc21` [Example 397, 8-Butyl-2-(3,4-difluoro-phenylamino)-8H-pyrido[2,3-d]pyrimidin-7-one] came in with an IC50 of 0.081 µM.
`CCCCn1c(=O)ccc2cnc(Nc3ccc(I)c(Cl)c3)nc21` [Example 398, 8-Butyl-2-(3-chloro-4-iodo-phenylamino)-8H-pyrido[2,3-d]pyrimidin-7-one] yielded an IC50 of 0.088 µM.
Still for that read-out and setting: under `CCCCn1c(=O)ccc2cnc(Nc3cc(C)cc(C)c3)nc21` [Example 399, 8-Butyl-2-(3,5-dimethyl-phenylamino)-8H-pyrido[2,3-d]pyrimidin-7-one] stands 0.014 µM.
In turn, `CCCCn1c(=O)ccc2cnc(Nc3ccc(C)c(Cl)c3)nc21` [Example 400, 8-Butyl-2-(3-chloro-4-methyl-phenylamino)-8H-pyrido[2,3-d]pyrimidin-7-one] displayed an IC50 of 0.038 µM.
With `CCCCn1c(=O)ccc2cnc(Nc3ccc(Cl)c(C(F)(F)F)c3)nc21` [Example 401, 8-Butyl-2-(4-chloro-3-trifluoromethyl-phenylamino)-8H-pyrido[2,3-d]pyrimidin-7-one], the IC50 is 0.292 µM.
As for `CCCCn1c(=O)ccc2cnc(Nc3cccc(S(N)(=O)=O)c3)nc21` [Example 402, 3-(8-Butyl-7-oxo-7,8-dihydro-pyrido[2,3-d]pyrimidin-2-ylamino)-benzenesulfonamide], the IC50 stood at 0.02 µM.
In turn, `CCCCn1c(=O)ccc2cnc(Nc3ccc4c(c3)CCCC4=O)nc21` [Example 403, 8-Butyl-2-(5-oxo-5,6,7,8-tetrahydro-naphthalen-2-ylamino)-8H-pyrido[2,3-d]pyrimidin-7-one] showed an IC50 of 0.023 µM.
`CCCCn1c(=O)ccc2cnc(Nc3cc(F)cc(F)c3)nc21` [Example 404, 8-Butyl-2-(3,5-difluoro-phenylamino)-8H-pyrido[2,3-d]pyrimidin-7-one]: the IC50 is 0.28 µM.
`CC(C)n1c(=O)ccc2cnc(Nc3cccc([N+](=O)[O-])c3)nc21` [Example 406, 8-Isopropyl-2-(3-nitro-phenylamino)-8H-pyrido[2,3-d]pyrimidin-7-one] showed an IC50 of 0.0525 µM.
The same measure, in the same setting: as for `CC(C)n1c(=O)ccc2cnc(Nc3ccc(F)c(C(F)(F)F)c3)nc21` [Example 407, 2-(4-Fluoro-3-trifluoromethyl-phenylamino)-8-isopropyl-8H-pyrido[2,3-d]pyrimidin-7-one], the figure is 0.056 µM.

The next assay deals with cdk2/cyclinE (Homo sapiens, UniProt P24941). Kind of assay: Cyclin-Dependent Kinase Assay cdk2/cyclinE. The conditions noted are these: cdk2/E IC50.
In turn, `CCCCn1c(=O)ccc2cnc(Nc3ccc(F)c(F)c3)nc21` [Example 397, 8-Butyl-2-(3,4-difluoro-phenylamino)-8H-pyrido[2,3-d]pyrimidin-7-one] registered an IC50 of 0.075 µM.
Regarding `CCCCn1c(=O)ccc2cnc(Nc3ccc(I)c(Cl)c3)nc21` [Example 398, 8-Butyl-2-(3-chloro-4-iodo-phenylamino)-8H-pyrido[2,3-d]pyrimidin-7-one], the IC50 was found to be 0.35 µM.
As to `CCCCn1c(=O)ccc2cnc(Nc3cc(C)cc(C)c3)nc21` [Example 399, 8-Butyl-2-(3,5-dimethyl-phenylamino)-8H-pyrido[2,3-d]pyrimidin-7-one], the IC50 is 0.05 µM.
`CCCCn1c(=O)ccc2cnc(Nc3ccc(C)c(Cl)c3)nc21` [Example 400, 8-Butyl-2-(3-chloro-4-methyl-phenylamino)-8H-pyrido[2,3-d]pyrimidin-7-one] showed an IC50 of 0.056 µM.
Take `CCCCn1c(=O)ccc2cnc(Nc3ccc(Cl)c(C(F)(F)F)c3)nc21` [Example 401, 8-Butyl-2-(4-chloro-3-trifluoromethyl-phenylamino)-8H-pyrido[2,3-d]pyrimidin-7-one]: the IC50 is 0.86 µM.
In turn, `CCCCn1c(=O)ccc2cnc(Nc3cccc(S(N)(=O)=O)c3)nc21` [Example 402, 3-(8-Butyl-7-oxo-7,8-dihydro-pyrido[2,3-d]pyrimidin-2-ylamino)-benzenesulfonamide] had an IC50 of 0.025 µM.
With `CCCCn1c(=O)ccc2cnc(Nc3ccc4c(c3)CCCC4=O)nc21` [Example 403, 8-Butyl-2-(5-oxo-5,6,7,8-tetrahydro-naphthalen-2-ylamino)-8H-pyrido[2,3-d]pyrimidin-7-one], the IC50 came out at 0.039 µM.
In turn, `CCCCn1c(=O)ccc2cnc(Nc3cc(F)cc(F)c3)nc21` [Example 404, 8-Butyl-2-(3,5-difluoro-phenylamino)-8H-pyrido[2,3-d]pyrimidin-7-one] displayed an IC50 of 0.3 µM.
The compound `CC(C)n1c(=O)ccc2cnc(Nc3cccc([N+](=O)[O-])c3)nc21` [Example 406, 8-Isopropyl-2-(3-nitro-phenylamino)-8H-pyrido[2,3-d]pyrimidin-7-one] showed an IC50 of 0.0947 µM.
The same measure, in the same setting: under `CC(C)n1c(=O)ccc2cnc(Nc3ccc(F)c(C(F)(F)F)c3)nc21` [Example 407, 2-(4-Fluoro-3-trifluoromethyl-phenylamino)-8-isopropyl-8H-pyrido[2,3-d]pyrimidin-7-one] stands 0.68 µM.

A further assay has as its target cdk4/D (Homo sapiens, UniProt P11802). Kind of assay: Cyclin-Dependent Kinase 4 (cdk4) Assay. The assay is classed as biochemical. The conditions noted are these: read-out: cdk4/D IC50.
In the case of `CCCCn1c(=O)ccc2cnc(Nc3ccc(F)c(F)c3)nc21` [Example 397, 8-Butyl-2-(3,4-difluoro-phenylamino)-8H-pyrido[2,3-d]pyrimidin-7-one], the IC50 stood at 0.25 µM.
As for `CCCCn1c(=O)ccc2cnc(Nc3ccc(I)c(Cl)c3)nc21` [Example 398, 8-Butyl-2-(3-chloro-4-iodo-phenylamino)-8H-pyrido[2,3-d]pyrimidin-7-one], the IC50 turned out to be 0.23 µM.
Regarding `CCCCn1c(=O)ccc2cnc(Nc3cc(C)cc(C)c3)nc21` [Example 399, 8-Butyl-2-(3,5-dimethyl-phenylamino)-8H-pyrido[2,3-d]pyrimidin-7-one], the IC50 was 0.92 µM.
On to `CCCCn1c(=O)ccc2cnc(Nc3ccc(C)c(Cl)c3)nc21` [Example 400, 8-Butyl-2-(3-chloro-4-methyl-phenylamino)-8H-pyrido[2,3-d]pyrimidin-7-one], for which the IC50 came out at 0.17 µM.
Regarding `CCCCn1c(=O)ccc2cnc(Nc3ccc(Cl)c(C(F)(F)F)c3)nc21` [Example 401, 8-Butyl-2-(4-chloro-3-trifluoromethyl-phenylamino)-8H-pyrido[2,3-d]pyrimidin-7-one], the IC50 worked out at 1.3 µM.
Consider `CCCCn1c(=O)ccc2cnc(Nc3cccc(S(N)(=O)=O)c3)nc21` [Example 402, 3-(8-Butyl-7-oxo-7,8-dihydro-pyrido[2,3-d]pyrimidin-2-ylamino)-benzenesulfonamide], for which the IC50 was found to be 0.087 µM.
Regarding `CCCCn1c(=O)ccc2cnc(Nc3ccc4c(c3)CCCC4=O)nc21` [Example 403, 8-Butyl-2-(5-oxo-5,6,7,8-tetrahydro-naphthalen-2-ylamino)-8H-pyrido[2,3-d]pyrimidin-7-one], the IC50 came out at 0.093 µM.
On the same count and under the same terms, under `CCCCn1c(=O)ccc2cnc(Nc3cc(F)cc(F)c3)nc21` [Example 404, 8-Butyl-2-(3,5-difluoro-phenylamino)-8H-pyrido[2,3-d]pyrimidin-7-one] stands 1.9 µM; under `CC(C)n1c(=O)ccc2cnc(Nc3cccc([N+](=O)[O-])c3)nc21` [Example 406, 8-Isopropyl-2-(3-nitro-phenylamino)-8H-pyrido[2,3-d]pyrimidin-7-one], 0.26 µM; under `CC(C)n1c(=O)ccc2cnc(Nc3ccc(F)c(C(F)(F)F)c3)nc21` [Example 407, 2-(4-Fluoro-3-trifluoromethyl-phenylamino)-8-isopropyl-8H-pyrido[2,3-d]pyrimidin-7-one], 0.98 µM.

A further assay concerns the target cdk2/cyclinA (Homo sapiens, UniProt P24941). Kind of assay: Cyclin-Dependent Kinase Assay cdk2/cyclinA. To be noted: cdk2/A IC50.
Experimental: Cyclin-Dependent Kinase Assays (cdk2/cyclinE, cdk2/cyclinA, cdc2/cyclinB)
All components except the ATP were added to the wells, and the plate was placed on a plate mixer for 2 minutes. The reaction was begun by addition of [^32P]ATP, and the plate was incubated at 25° C. for 15 minutes. The reaction was terminated by addition of 0.1 mL of 20% TCA. The plate was kept at 4° C. for at least 1 hour to allow the substrate to precipitate. The wells were then washed five times with 0.2 mL of 10% TCA and ^32p incorporation determined with a beta plate counter (Wallac Inc., Gaithersburg, Md.).
In turn, `CCCCn1c(=O)ccc2cnc(Nc3ccc(F)c(F)c3)nc21` [Example 397, 8-Butyl-2-(3,4-difluoro-phenylamino)-8H-pyrido[2,3-d]pyrimidin-7-one] yielded an IC50 of 0.31 µM.
On the same count and under the same terms, under `CCCCn1c(=O)ccc2cnc(Nc3ccc(I)c(Cl)c3)nc21` [Example 398, 8-Butyl-2-(3-chloro-4-iodo-phenylamino)-8H-pyrido[2,3-d]pyrimidin-7-one] stands 1.4 µM; under `CCCCn1c(=O)ccc2cnc(Nc3cc(C)cc(C)c3)nc21` [Example 399, 8-Butyl-2-(3,5-dimethyl-phenylamino)-8H-pyrido[2,3-d]pyrimidin-7-one], 0.31 µM; under `CCCCn1c(=O)ccc2cnc(Nc3ccc(C)c(Cl)c3)nc21` [Example 400, 8-Butyl-2-(3-chloro-4-methyl-phenylamino)-8H-pyrido[2,3-d]pyrimidin-7-one], 0.48 µM.
The same measure, in the same setting: as for `CCCCn1c(=O)ccc2cnc(Nc3ccc(Cl)c(C(F)(F)F)c3)nc21` [Example 401, 8-Butyl-2-(4-chloro-3-trifluoromethyl-phenylamino)-8H-pyrido[2,3-d]pyrimidin-7-one], the figure is 0.88 µM; as for `CCCCn1c(=O)ccc2cnc(Nc3cccc(S(N)(=O)=O)c3)nc21` [Example 402, 3-(8-Butyl-7-oxo-7,8-dihydro-pyrido[2,3-d]pyrimidin-2-ylamino)-benzenesulfonamide], 0.14 µM.
In turn, `CCCCn1c(=O)ccc2cnc(Nc3ccc4c(c3)CCCC4=O)nc21` [Example 403, 8-Butyl-2-(5-oxo-5,6,7,8-tetrahydro-naphthalen-2-ylamino)-8H-pyrido[2,3-d]pyrimidin-7-one] registered an IC50 of 0.23 µM.
As for `CCCCn1c(=O)ccc2cnc(Nc3cc(F)cc(F)c3)nc21` [Example 404, 8-Butyl-2-(3,5-difluoro-phenylamino)-8H-pyrido[2,3-d]pyrimidin-7-one], the IC50 worked out at 0.65 µM.
`CC(C)n1c(=O)ccc2cnc(Nc3cccc([N+](=O)[O-])c3)nc21` [Example 406, 8-Isopropyl-2-(3-nitro-phenylamino)-8H-pyrido[2,3-d]pyrimidin-7-one] registered an IC50 of 0.16 µM.
Turning to `CC(C)n1c(=O)ccc2cnc(Nc3ccc(F)c(C(F)(F)F)c3)nc21` [Example 407, 2-(4-Fluoro-3-trifluoromethyl-phenylamino)-8-isopropyl-8H-pyrido[2,3-d]pyrimidin-7-one], the IC50 came out at 0.46 µM.
